Results from patent US12043599B2, “Herbicidal compounds” (SYNGENTA PARTICIPATIONS AG, priority 2018, dated 2024).

Legend:
Assay type in all cases: in vivo
Conditions in all cases: 250 g/h, evaluated after 13 days
Setaria faberi (SETFA) [1] = assay: Post-emergence herbicidal glasshouse test, percentage damage
How it was run: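 Percentage damage was scored 13 days after treatment on a five-point scale (1=0-19% to 5=80-100%). Treatments were post-emergence sprays on 8-day-old wheat, barley and SETFA plants in a glasshouse (24/16 °C day/night, 14 h light, 65% humidity), using acetone/water 50:50 with 0.5% Tween 20 at the stated rates. Wheat additionally received cloquintocet-mexyl safener at 50 g/ha.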

[2] = system: Alopecurus myosuroides (ALOMY); assay: as above
How it was run: (§1)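 Spray: 250 g/h, aqueous acetone/water 50:50 + 0.5% Tween 20; pre-em 1 d after sowing, post-em at 8 d. Glasshouse 24/16 °C, 14 h light, 65% RH, watered twice daily. Read % damage at 13 d, scored 1–5 (5=80-100%).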

Avena fatua (AVEFA) [3] = assay: as above
How it was run: as §1

Lolium perenne (LOLPE) [4] = assay: as above
How it was run: as §1

[5] = system: Echinochloa crus-galli (ECHCG); assay: as above
How it was run: as §1

[6] = system: Alopecurus myosuroides (ALOMY); assay: Pre-emergence herbicidal glasshouse test, percentage damage
How it was run: as §1

Avena fatua (AVEFA) [7] = assay: as above
How it was run: as §1

Setaria faberi (SETFA) [8] = assay: as above
How it was run: as §1

Lolium perenne (LOLPE) [9] = assay: as above
How it was run: as §1

[10] = system: Echinochloa crus-galli (ECHCG); assay: as above
How it was run: as §1

## CC#Cc1cc(C)c(C2=C(OC(=O)OC)CC3(CCN(C(=O)NC(=O)C(C)(C)C)CC3)CC2=O)c(C)c1 [Compound P10]
Setaria faberi (SETFA) [1]
  SETFA POST percentage damage (five point scale): 5 (5=80-100%)
[2]
  ALOMY POST percentage damage (five point scale): 5 (5=80-100%)
Avena fatua (AVEFA) [3]
  AVEFA POST percentage damage (five point scale): 5 (5=80-100%)
Lolium perenne (LOLPE) [4]
  LOLPE POST percentage damage (five point scale): 5 (5=80-100%)
[5]
  ECHCG POST percentage damage (five point scale): 5 (5=80-100%)
[6]
  ALOMY PRE percentage damage (five point scale): 5 (5=80-100%)
Avena fatua (AVEFA) [7]
  AVEFA PRE percentage damage (five point scale): 5 (5=80-100%)
Setaria faberi (SETFA) [8]
  SETFA PRE percentage damage (five point scale): 5 (5=80-100%)
Lolium perenne (LOLPE) [9]
  LOLPE PRE percentage damage (five point scale): 5 (5=80-100%)
[10]
  ECHCG PRE percentage damage (five point scale): 5 (5=80-100%)

## CC#Cc1cc(C)c(C2=C(OC(=O)C(C)OC)CC3(CCN(C(=O)C(C)OC)CC3)CC2=O)c(C)c1 (centres unmarked) [Compound P6]
Setaria faberi (SETFA) [1]
  SETFA POST percentage damage (five point scale): 5 (5=80-100%)
[2]
  ALOMY POST percentage damage (five point scale): 5 (5=80-100%)
Avena fatua (AVEFA) [3]
  AVEFA POST percentage damage (five point scale): 5 (5=80-100%)
Lolium perenne (LOLPE) [4]
  LOLPE POST percentage damage (five point scale): 5 (5=80-100%)
[5]
  ECHCG POST percentage damage (five point scale): 5 (5=80-100%)
[6]
  ALOMY PRE percentage damage (five point scale): 5 (5=80-100%)
Avena fatua (AVEFA) [7]
  AVEFA PRE percentage damage (five point scale): 5 (5=80-100%)
Setaria faberi (SETFA) [8]
  SETFA PRE percentage damage (five point scale): 5 (5=80-100%)
Lolium perenne (LOLPE) [9]
  LOLPE PRE percentage damage (five point scale): 5 (5=80-100%)
[10]
  ECHCG PRE percentage damage (five point scale): 5 (5=80-100%)

## CC#Cc1cc(C)c(C2C(=O)CC3(CCN(C(=O)c4cnccc4C#N)CC3)CC2=O)c(C)c1 [Compound A192]
Setaria faberi (SETFA) [1]
  SETFA POST percentage damage (five point scale): 5 (5=80-100%)
[2]
  ALOMY POST percentage damage (five point scale): 5 (5=80-100%)
Avena fatua (AVEFA) [3]
  AVEFA POST percentage damage (five point scale): 5 (5=80-100%)
Lolium perenne (LOLPE) [4]
  LOLPE POST percentage damage (five point scale): 5 (5=80-100%)
[5]
  ECHCG POST percentage damage (five point scale): 5 (5=80-100%)
[6]
  ALOMY PRE percentage damage (five point scale): 3 (3=40-59%)
Avena fatua (AVEFA) [7]
  AVEFA PRE percentage damage (five point scale): 3 (3=40-59%)
Setaria faberi (SETFA) [8]
  SETFA PRE percentage damage (five point scale): 5 (5=80-100%)
Lolium perenne (LOLPE) [9]
  LOLPE PRE percentage damage (five point scale): 5 (5=80-100%)
[10]
  ECHCG PRE percentage damage (five point scale): 5 (5=80-100%)

## CC#Cc1cc(C)c(C2C(=O)CC3(CCN(C(=O)c4ccccc4)CC3)CC2=O)c(OC)c1 [Compound A73]
Setaria faberi (SETFA) [1]
  SETFA POST percentage damage (five point scale): 5 (5=80-100%)
[2]
  ALOMY POST percentage damage (five point scale): 5 (5=80-100%)
Avena fatua (AVEFA) [3]
  AVEFA POST percentage damage (five point scale): 5 (5=80-100%)
Lolium perenne (LOLPE) [4]
  LOLPE POST percentage damage (five point scale): 5 (5=80-100%)
[5]
  ECHCG POST percentage damage (five point scale): 5 (5=80-100%)
[6]
  ALOMY PRE percentage damage (five point scale): 5 (5=80-100%)
Avena fatua (AVEFA) [7]
  AVEFA PRE percentage damage (five point scale): 5 (5=80-100%)
Setaria faberi (SETFA) [8]
  SETFA PRE percentage damage (five point scale): 5 (5=80-100%)
Lolium perenne (LOLPE) [9]
  LOLPE PRE percentage damage (five point scale): 5 (5=80-100%)
[10]
  ECHCG PRE percentage damage (five point scale): 5 (5=80-100%)

## CC#Cc1cc(C)c(C2C(=O)CC3(CCN(C(=O)C4CC4)CC3)CC2=O)c(OC)c1 [Compound A78]
Setaria faberi (SETFA) [1]
  SETFA POST percentage damage (five point scale): 5 (5=80-100%)
[2]
  ALOMY POST percentage damage (five point scale): 5 (5=80-100%)
Avena fatua (AVEFA) [3]
  AVEFA POST percentage damage (five point scale): 5 (5=80-100%)
Lolium perenne (LOLPE) [4]
  LOLPE POST percentage damage (five point scale): 5 (5=80-100%)
[5]
  ECHCG POST percentage damage (five point scale): 5 (5=80-100%)
[6]
  ALOMY PRE percentage damage (five point scale): 5 (5=80-100%)
Avena fatua (AVEFA) [7]
  AVEFA PRE percentage damage (five point scale): 5 (5=80-100%)
Setaria faberi (SETFA) [8]
  SETFA PRE percentage damage (five point scale): 5 (5=80-100%)
Lolium perenne (LOLPE) [9]
  LOLPE PRE percentage damage (five point scale): 5 (5=80-100%)
[10]
  ECHCG PRE percentage damage (five point scale): 5 (5=80-100%)

## CC#Cc1cc(C)c(C2C(=O)CC3(CCN(C(=O)c4ccccc4)CC3)CC2=O)c(C)c1 [Compound A7]
Setaria faberi (SETFA) [1]
  SETFA POST percentage damage (five point scale): 5 (5=80-100%)
[2]
  ALOMY POST percentage damage (five point scale): 5 (5=80-100%)
Avena fatua (AVEFA) [3]
  AVEFA POST percentage damage (five point scale): 5 (5=80-100%)
Lolium perenne (LOLPE) [4]
  LOLPE POST percentage damage (five point scale): 5 (5=80-100%)
[5]
  ECHCG POST percentage damage (five point scale): 5 (5=80-100%)
[6]
  ALOMY PRE percentage damage (five point scale): 5 (5=80-100%)
Avena fatua (AVEFA) [7]
  AVEFA PRE percentage damage (five point scale): 5 (5=80-100%)
Setaria faberi (SETFA) [8]
  SETFA PRE percentage damage (five point scale): 5 (5=80-100%)
Lolium perenne (LOLPE) [9]
  LOLPE PRE percentage damage (five point scale): 5 (5=80-100%)
[10]
  ECHCG PRE percentage damage (five point scale): 5 (5=80-100%)

## CC#Cc1cc(C)c(C2C(=O)CC3(CCN(S(=O)(=O)CC)CC3)CC2=O)c(OC)c1 [Compound A72]
Setaria faberi (SETFA) [1]
  SETFA POST percentage damage (five point scale): 5 (5=80-100%)
[2]
  ALOMY POST percentage damage (five point scale): 5 (5=80-100%)
Avena fatua (AVEFA) [3]
  AVEFA POST percentage damage (five point scale): 5 (5=80-100%)
Lolium perenne (LOLPE) [4]
  LOLPE POST percentage damage (five point scale): 5 (5=80-100%)
[5]
  ECHCG POST percentage damage (five point scale): 5 (5=80-100%)
[6]
  ALOMY PRE percentage damage (five point scale): 5 (5=80-100%)
Avena fatua (AVEFA) [7]
  AVEFA PRE percentage damage (five point scale): 5 (5=80-100%)
Setaria faberi (SETFA) [8]
  SETFA PRE percentage damage (five point scale): 5 (5=80-100%)
Lolium perenne (LOLPE) [9]
  LOLPE PRE percentage damage (five point scale): 5 (5=80-100%)
[10]
  ECHCG PRE percentage damage (five point scale): 5 (5=80-100%)

## CC#Cc1cc(C)c(C2C(=O)CC3(CCN(C(=O)CC#N)CC3)CC2=O)c(OC)c1 [Compound A80]
Setaria faberi (SETFA) [1]
  SETFA POST percentage damage (five point scale): 5 (5=80-100%)
[2]
  ALOMY POST percentage damage (five point scale): 5 (5=80-100%)
Avena fatua (AVEFA) [3]
  AVEFA POST percentage damage (five point scale): 5 (5=80-100%)
Lolium perenne (LOLPE) [4]
  LOLPE POST percentage damage (five point scale): 5 (5=80-100%)
[5]
  ECHCG POST percentage damage (five point scale): 5 (5=80-100%)
[6]
  ALOMY PRE percentage damage (five point scale): 5 (5=80-100%)
Avena fatua (AVEFA) [7]
  AVEFA PRE percentage damage (five point scale): 5 (5=80-100%)
Setaria faberi (SETFA) [8]
  SETFA PRE percentage damage (five point scale): 5 (5=80-100%)
Lolium perenne (LOLPE) [9]
  LOLPE PRE percentage damage (five point scale): 5 (5=80-100%)
[10]
  ECHCG PRE percentage damage (five point scale): 5 (5=80-100%)

## C=CCOCC(=O)N1CCC2(CC1)CC(=O)C(c1c(C)cc(C#CC)cc1C)C(=O)C2 [Compound A201]
Setaria faberi (SETFA) [1]
  SETFA POST percentage damage (five point scale): 5 (5=80-100%)
[2]
  ALOMY POST percentage damage (five point scale): 5 (5=80-100%)
Avena fatua (AVEFA) [3]
  AVEFA POST percentage damage (five point scale): 5 (5=80-100%)
Lolium perenne (LOLPE) [4]
  LOLPE POST percentage damage (five point scale): 5 (5=80-100%)
[5]
  ECHCG POST percentage damage (five point scale): 5 (5=80-100%)
[6]
  ALOMY PRE percentage damage (five point scale): 5 (5=80-100%)
Avena fatua (AVEFA) [7]
  AVEFA PRE percentage damage (five point scale): 4 (4=60-79%)
Setaria faberi (SETFA) [8]
  SETFA PRE percentage damage (five point scale): 5 (5=80-100%)
Lolium perenne (LOLPE) [9]
  LOLPE PRE percentage damage (five point scale): 5 (5=80-100%)
[10]
  ECHCG PRE percentage damage (five point scale): 5 (5=80-100%)

## CC#Cc1cc(C)c(C2C(=O)CC3(CCN(C(=O)N(C)C(=O)C(C)(C)C)CC3)CC2=O)c(C)c1 [Compound A165]
Setaria faberi (SETFA) [1]
  SETFA POST percentage damage (five point scale): 5 (5=80-100%)
[2]
  ALOMY POST percentage damage (five point scale): 5 (5=80-100%)
Avena fatua (AVEFA) [3]
  AVEFA POST percentage damage (five point scale): 5 (5=80-100%)
Lolium perenne (LOLPE) [4]
  LOLPE POST percentage damage (five point scale): 5 (5=80-100%)
[5]
  ECHCG POST percentage damage (five point scale): 5 (5=80-100%)
[6]
  ALOMY PRE percentage damage (five point scale): 4 (4=60-79%)
Avena fatua (AVEFA) [7]
  AVEFA PRE percentage damage (five point scale): 4 (4=60-79%)
Setaria faberi (SETFA) [8]
  SETFA PRE percentage damage (five point scale): 5 (5=80-100%)
Lolium perenne (LOLPE) [9]
  LOLPE PRE percentage damage (five point scale): 4 (4=60-79%)
[10]
  ECHCG PRE percentage damage (five point scale): 5 (5=80-100%)

## CC#Cc1cc(C)c(C2C(=O)CC3(CCN(C(=O)[C@H](C)OC)CC3)CC2=O)c(C)c1 [Compound A153]
Setaria faberi (SETFA) [1]
  SETFA POST percentage damage (five point scale): 5 (5=80-100%)
[2]
  ALOMY POST percentage damage (five point scale): 5 (5=80-100%)
Avena fatua (AVEFA) [3]
  AVEFA POST percentage damage (five point scale): 5 (5=80-100%)
Lolium perenne (LOLPE) [4]
  LOLPE POST percentage damage (five point scale): 5 (5=80-100%)
[5]
  ECHCG POST percentage damage (five point scale): 5 (5=80-100%)
[6]
  ALOMY PRE percentage damage (five point scale): 5 (5=80-100%)
Avena fatua (AVEFA) [7]
  AVEFA PRE percentage damage (five point scale): 5 (5=80-100%)
Setaria faberi (SETFA) [8]
  SETFA PRE percentage damage (five point scale): 5 (5=80-100%)
Lolium perenne (LOLPE) [9]
  LOLPE PRE percentage damage (five point scale): 5 (5=80-100%)
[10]
  ECHCG PRE percentage damage (five point scale): 5 (5=80-100%)
